Consider 25 compounds from patent US20230184744A1, “INTERTUMORAL HOMOGENEITY DETERMINED BY MiCK ASSAY” (Pierian Biosciences, LLC, priority 2014, published 2023).

Assay [1] relates to Pancreatic islet cell cancer (lymph node). Briefly: MiCK assay, drug-induced apoptosis, Table 4 tumor A1. Conditions: Table 4 tumor A1: Pancreatic islet cell cancer (lymph node); 48 hours with drug.
Description: (§3) After overnight incubation, chemotherapy drugs were added to the wells of the 96-well plate in 5 μL aliquots or to the wells of a 384-well plate in 2.5 μL aliquots using an automated pipettor. The number of drugs or drug combinations and the number of concentrations tested depended on the number of viable malignant cells that were isolated from the tumor specimen. The drug concentrations, determined by molarity, were those indicated by the manufacturer as the desired blood level concentration plus or minus one serial dilution if enough cells were available.
(§4) Following drug addition, the plate was incubated for 30 min. at 37° C. in a 5% carbon dioxide humidified atmosphere incubator. Each well was then overlayed with sterile mineral oil, and the plate was placed into the incubator chamber of a microplate spectrophotometric reader. The optical density at 600 nanometers was read and recorded every 5 minutes over a period of 48 hours.
(§5) Patients: Three patients were included in this study. Two tumor samples from different tumor sites were collected from each patient. Both samples from each patient were collected on the same day.
Assay [2] deals with NSCLC, multi-focal, recurrent adenocarcinoma (lymph node). Briefly: MiCK assay, drug-induced apoptosis, Table 3 tumor D2. The format is cell-based, human. The note with it: Table 3 tumor D2: NSCLC, multi-focal, recurrent adenocarcinoma (lymph node); 48 hours with drug. The source says: (§1) Data were obtained optically using Mie light-scattering.
(§2) Do a test well. […] Look at the well under the inverted microscope. […] Repeat until optimal cell concentration is found. Plate the cells into the wells.

In assay [3] the test system is Lung small cell carcinoma (site A). Kind of assay: MiCK assay, drug-induced apoptosis, Table 4 tumor C1. Conditions: Table 4 tumor C1: Lung small cell carcinoma (site A); 48 hours with drug.
Description: as §3, §4, §5
Assay [4] concerns NSCLC, bilateral well-differentiated adenocarcinoma (site 1B). Briefly: MiCK assay, drug-induced apoptosis, Table 3 tumor B2. It counts as cell-based, human. The note with it: Table 3 tumor B2: NSCLC, bilateral well-differentiated adenocarcinoma (site 1B); 48 hours with drug.
Source text: as §1, §2

Assay [5] deals with Probable mesothelioma (pleural effusion). Briefly: MiCK assay, drug-induced apoptosis, Table 3 tumor A2. Conditions: Table 3 tumor A2: Probable mesothelioma (pleural effusion); 48 hours with drug. It counts as cell-based, human. On the procedure:
as §1
When the optimal cell concentration is reached, put the cells in the plate and incubate overnight in the incubating chamber of the incubator (37° C.).

Assay [6] concerns NSCLC, bilateral well-differentiated adenocarcinoma (site 1A). Kind of assay: MiCK assay, drug-induced apoptosis, Table 3 tumor B1. The format is cell-based, human. Conditions: Table 3 tumor B1: NSCLC, bilateral well-differentiated adenocarcinoma (site 1A); 48 hours with drug.
Source text: as §1, §2

For assay [7], the system named is Lung adenocarcinoma (pleural effusion). Kind of assay: MiCK assay, drug-induced apoptosis, Table 4 tumor B1. It counts as cell-based, human. Conditions: Table 4 tumor B1: Lung adenocarcinoma (pleural effusion); 48 hours with drug.
Source text: as §1
Patients: Three patients were included in this study. […] Patient A was diagnosed with pancreatic islet cell cancer; sample 1 was collected from lymph node and sample 2 was collected from the primary tumor. Patient B was diagnosed with lung cancer NSCLC adenocarcinoma; sample 1 was collected from pleural effusion and sample 2 was collected from solid tumor. […] Ages of the patients ranged from 51-79 years old with an average age of 65 years. One patient was […] and two were female.

In assay [8] the test system is NSCLC, multi-focal, recurrent adenocarcinoma (site A). Briefly: MiCK assay, drug-induced apoptosis, Table 3 tumor C1. The format is cell-based, human. The note with it: Table 3 tumor C1: NSCLC, multi-focal, recurrent adenocarcinoma (site A); 48 hours with drug.
Source text: as §1, §2

Assay [9] has as its system NSCLC, multi-focal adenocarcinoma (site A). Briefly: MiCK assay, drug-induced apoptosis, Table 3 tumor E1. The note with it: Table 3 tumor E1: NSCLC, multi-focal adenocarcinoma (site A); 48 hours with drug. It counts as cell-based, human.
Source text: as §1, §2

For assay [10], the system named is NSCLC, multi-focal, recurrent adenocarcinoma (right lung). Kind of assay: MiCK assay, drug-induced apoptosis, Table 3 tumor D1. The format is cell-based, human. Conditions: Table 3 tumor D1: NSCLC, multi-focal, recurrent adenocarcinoma (right lung); 48 hours with drug.
Source text: as §1, §2

The subject of assay [11] is Lung adenocarcinoma (site B). Briefly: MiCK assay, drug-induced apoptosis, Table 4 tumor C2. The note with it: Table 4 tumor C2: Lung adenocarcinoma (site B); 48 hours with drug.
Description: as §3
(§6) Following drug addition, the plate was incubated for 30 min. at 37° C. in a 5% carbon dioxide humidified atmosphere incubator. Each well was then overlayed with sterile mineral oil, and the plate was placed into the incubator chamber of a microplate spectrophotometric reader. The optical density at 600 nanometers was read and recorded every 5 minutes over a period of 48 hours. Optical density increases, which correlates with apoptosis, were converted to kinetic units (KU) of apoptosis by a proprietary software ProApo with a formula described in the Kravtsov reference incorporated by reference (i.e. Kravtsov V. et al. “Use of the Microculture Kinetic Assay of apoptosis to determine chemosensitivities of leukemias.” Blood 1998; 92:968-980).
(§7) Purified tumor cells were cultured for 48 hours with individual drugs, and drug-induced apoptosis was measured using the MiCK assay as described in Example 1. Data were obtained optically using Mie light-scattering.
Assay [12] relates to Pancreatic islet cell cancer (primary tumor). Kind of assay: MiCK assay, drug-induced apoptosis, Table 4 tumor A2. The note with it: 48 hours with drug.
Description: as §3, §6, §7

Numbered stars: 1 amine (or outer) side, 2 acyl side, 3 side chain; on linkers, the order of the positions; unused ones are H or OH. Bridge positions count the residues as written; N and C are the ends. Square brackets hold non-standard residues; d marks the D form. Peptide text beside a SMILES is read from it. I, II: the chains in the order shown. Actinocin(9to1) = Cc1c2oc3c(C)ccc(C(=O)[*:1])c3nc-2c(C(=O)[*:2])c(N)c1=O; NMeV = CN[C@H](C(=O)O)C(C)C; Sar = CNCC(=O)O

`O=P1(NCCCl)OCCCN1CCCl` (stereo not shown) [4HI (Ifosfamide), Ifosfamide]: the “kinetic units (KU) of apoptosis” value in assay [1] is 3.01 KU; in [2] it was 1.20 KU; in assay [3] it was 1.50 KU; in [4] it was 0.70 KU; in [5] it was 3.40 KU; in assay [6] it was 2.70 KU. For the same compound, the figures for the “kinetic units (KU) of apoptosis” value in [7], in assay [8] and in assay [9] were 2.40 KU, 0.50 KU and 0.10 KU, respectively.
For the compound `O=c1[nH]cc(F)c(=O)[nH]1` [5FU, 5-Fluorouracil], the “kinetic units (KU) of apoptosis” value in [1] came out at 0.42 KU.
Consider `Nc1nc2[nH]cc(CCc3ccc(C(=O)N[C@@H](CCC(=O)O)C(=O)O)cc3)c2c(=O)[nH]1` [Alimta, Pemetrexed], for which the “kinetic units (KU) of apoptosis” value in [1] was 0.22 KU; in assay [10], 0.70 KU; in assay [2], 0.60 KU; in assay [3], 1.40 KU; in assay [4] it was 1.60 KU; in assay [5] it was 1.20 KU. For the same compound, the “kinetic units (KU) of apoptosis” value is listed as 1.40 KU in [6], 0.80 KU in assay [8] and 0.70 KU in [11].
With `Cn1c(CCCC(=O)O)nc2cc(N(CCCl)CCCl)ccc21` [Bendamustine], the “kinetic units (KU) of apoptosis” value in [1] is on record as 1.39 KU.
Turning to `O=NN(CCCl)C(=O)NC1CCCCC1` [CCNU], the “kinetic units (KU) of apoptosis” value in assay [1] is recorded as 1.00 KU; in assay [3], 0.90 KU.
For the compound `O=NN(CCCl)C(=O)NCCCl` [Carmustine], the “kinetic units (KU) of apoptosis” value in [1] came to 0.82 KU; in assay [3] it was 3.00 KU; in assay [7], 1.20 KU; in assay [11] it was 0.50 KU.
For the compound `Nc1nc(Cl)nc2c1ncn2[C@H]1C[C@H](O)[C@@H](CO)O1` [Cladribine], in [1], the “kinetic units (KU) of apoptosis” value is on record as 0.61 KU.
In the case of `CN(C)/N=N/c1[nH]cnc1C(N)=O` [Dacarbazine], the figures for the “kinetic units (KU) of apoptosis” value in assay [1] and in assay [12] were 1.31 KU and 0.00 KU, respectively.
Turning to `Cc1c2oc3c(C)ccc(C(=O)N[C@@H]4C(=O)N[C@H](C(C)C)C(=O)N5CCC[C@H]5C(=O)N(C)CC(=O)N(C)[C@@H](C(C)C)C(=O)O[C@@H]4C)c3nc-2c(C(=O)N[C@@H]2C(=O)N[C@H](C(C)C)C(=O)N3CCC[C@H]3C(=O)N(C)CC(=O)N(C)[C@@H](C(C)C)C(=O)O[C@@H]2C)c(N)c1=O` [Dactinomycin] (I: T[dV]P[Sar][NMeV] / II: T[dV]P[Sar][NMeV]; ester I:1-I:C, II:1-II:C; linker I:N-II:N via Actinocin(9to1)), the “kinetic units (KU) of apoptosis” value in assay [10] came out at 0.90 KU; in [3] it was 7.70 KU; in [4] it was 0.90 KU; in [5], 4.70 KU; in assay [6], 1.20 KU; in [7], 2.70 KU. For the same compound, the “kinetic units (KU) of apoptosis” value in assay [11] was 3.00 KU.
Turning to `COc1cccc2c1C(=O)c1c(O)c3c(c(O)c1C2=O)C[C@@](O)(C(C)=O)C[C@@H]3O[C@H]1C[C@H](N)[C@H](O)[C@H](C)O1` [Daunorubicin], the “kinetic units (KU) of apoptosis” value in assay [3] is on record as 8.10 KU; in assay [4] it was 1.40 KU; in assay [5], 3.80 KU; in [6], 1.40 KU.
`Cc1ccc(NC(=O)c2ccc(CN3CCN(C)CC3)cc2)cc1Nc1nccc(-c2cccnc2)n1` [Gleevec, imatinib]: the results for the “kinetic units (KU) of apoptosis” value in [1] and in assay [3] were 0.39 KU and 0.00 KU, respectively.
As for `CC(=O)[C@]1(O)Cc2c(O)c3c(c(O)c2[C@@H](O[C@H]2C[C@H](N)[C@H](O)[C@H](C)O2)C1)C(=O)c1ccccc1C3=O` [Idarubicin], the “kinetic units (KU) of apoptosis” value in [1] was 1.22 KU; in assay [10], 1.30 KU; in assay [3], 8.00 KU; in assay [4] it was 1.10 KU; in [5], 4.00 KU; in assay [6] it was 1.20 KU. Moreover, the “kinetic units (KU) of apoptosis” value in assay [8] stood at 0.90 KU; in [11], 3.00 KU.
In the case of `C/C(=C\c1csc(C)n1)[C@@H]1C[C@@H]2O[C@]2(C)CCC[C@H](C)[C@H](O)[C@@H](C)C(=O)C(C)(C)[C@@H](O)CC(=O)N1` [Ixabepilone], the “kinetic units (KU) of apoptosis” value in assay [1] worked out at 1.00 KU.
On to `N[C@@H](Cc1ccc(N(CCCl)CCCl)cc1)C(=O)O` [Melphalan], for which the “kinetic units (KU) of apoptosis” value turned out to be 0.57 KU in assay [1] and 3.10 KU in assay [7].
In the case of `CO[C@@]12[C@H](COC(N)=O)C3=C(C(=O)C(C)=C(N)C3=O)N1C[C@@H]1N[C@@H]12` [Mitomycin], the “kinetic units (KU) of apoptosis” value was found to be 1.04 KU in [1]; 0.60 KU in assay [10]; 6.30 KU in assay [3]; 1.00 KU in assay [4]; 1.00 KU in [5]; 1.20 KU in assay [6]. In addition, the figures for the “kinetic units (KU) of apoptosis” value in [7] and in [8] were 0.90 KU and 0.00 KU, respectively.
In the case of `O=C1c2c(O)ccc(O)c2C(=O)c2c(NCCNCCO)ccc(NCCNCCO)c21` [Mitoxantrone], the “kinetic units (KU) of apoptosis” value came to 0.82 KU in [1], 1.60 KU in assay [3] and 2.30 KU in assay [7].
Regarding `CNC(=O)c1cc(Oc2ccc(NC(=O)Nc3ccc(Cl)c(C(F)(F)F)c3)cc2)ccn1` [Sorafenib], the “kinetic units (KU) of apoptosis” value in [1] stood at 1.57 KU.
`CN(N=O)C(=O)N[C@@H](C=O)[C@@H](O)[C@H](O)[C@H](O)CO` [Streptozocin]: the figures for the “kinetic units (KU) of apoptosis” value in [1] and in assay [12] were 0.23 KU and 0.0 KU, respectively.
Turning to `C#Cc1cccc(Nc2ncnc3cc(OCCOC)c(OCCOC)cc23)c1` [Tarceva], the “kinetic units (KU) of apoptosis” value in assay [1] is listed as 0.66 KU; in assay [10], 0.5 KU; in assay [3], 0.00 KU; in assay [4] it was 0.60 KU; in assay [5] it was 0.80 KU; in assay [6], 0.60 KU. For the same compound, the “kinetic units (KU) of apoptosis” value in assay [11] is 0.70 KU.
In the case of `Cn1nnc2c(C(N)=O)ncn2c1=O` [Temozolomide], the “kinetic units (KU) of apoptosis” value was 0.62 KU in assay [1] and 1.22 KU in assay [12].
As for `CC(C)C[C@H](NC(=O)[C@H](Cc1ccccc1)NC(=O)c1cnccn1)B(O)O` [Velcade, Bortezomib], the “kinetic units (KU) of apoptosis” value worked out at 0.79 KU in assay [1]; 0.60 KU in assay [10]; 1.60 KU in assay [3]; 2.00 KU in assay [4]; 1.10 KU in [5]; 2.00 KU in assay [6]. The “kinetic units (KU) of apoptosis” value came to 3.40 KU in [7], 0.20 KU in [8] and 1.80 KU in assay [11].
For `Nc1ncn([C@@H]2O[C@H](CO)[C@@H](O)[C@H]2O)c(=O)n1` [Vidaza], in assay [1], the “kinetic units (KU) of apoptosis” value was 1.00 KU.
Regarding `CC[C@]1(O)C[C@@H]2CN(CCc3c([nH]c4ccccc34)[C@@](C(=O)OC)(c3cc4c(cc3OC)N(C)[C@H]3[C@@](O)(C(=O)OC)[C@H](OC(C)=O)[C@]5(CC)C=CCN6CC[C@]43[C@@H]65)C2)C1` [Vinblastine], the “kinetic units (KU) of apoptosis” value amounted to 1.00 KU in assay [1], 3.10 KU in [3] and 2.00 KU in assay [11].
With `CCCCCOC(=O)Nc1nc(=O)n([C@@H]2O[C@H](C)[C@@H](O)[C@H]2O)cc1F` [Xeloda], the “kinetic units (KU) of apoptosis” value in assay [1] is 0.42 KU; in assay [12], 0.90 KU.
Turning to Bleomycin, the results for the “kinetic units (KU) of apoptosis” value in [4], in [5] and in assay [6] were 1.30 KU, 1.00 KU and 1.90 KU, respectively.
